Measurements taken from publication PMC6934184, “Selective DNA-PKcs inhibition extends the therapeutic index of localized radiotherapy and chemotherapy” (The Journal of Clinical Investigation, 2019).

Molecular target: T1, PRKCQ (PKC theta) (Homo sapiens, UniProt Q04759)
T1 construct: purchased Thermo Fisher Scientific (Life Technologies) SelectScreen
Experiment: SelectScreen Z'LYTE
Assay type: biochemical
Procedure, shortened: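 SelectScreen broad panel; activity (Z'LYTE, Adapta) plus binding formats. ATP: Km app for CSF1R Z'LYTE; 10 for CAMK1 Adapta. Readout = % per kinase.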

T1 sequence (Q04759 whole entry): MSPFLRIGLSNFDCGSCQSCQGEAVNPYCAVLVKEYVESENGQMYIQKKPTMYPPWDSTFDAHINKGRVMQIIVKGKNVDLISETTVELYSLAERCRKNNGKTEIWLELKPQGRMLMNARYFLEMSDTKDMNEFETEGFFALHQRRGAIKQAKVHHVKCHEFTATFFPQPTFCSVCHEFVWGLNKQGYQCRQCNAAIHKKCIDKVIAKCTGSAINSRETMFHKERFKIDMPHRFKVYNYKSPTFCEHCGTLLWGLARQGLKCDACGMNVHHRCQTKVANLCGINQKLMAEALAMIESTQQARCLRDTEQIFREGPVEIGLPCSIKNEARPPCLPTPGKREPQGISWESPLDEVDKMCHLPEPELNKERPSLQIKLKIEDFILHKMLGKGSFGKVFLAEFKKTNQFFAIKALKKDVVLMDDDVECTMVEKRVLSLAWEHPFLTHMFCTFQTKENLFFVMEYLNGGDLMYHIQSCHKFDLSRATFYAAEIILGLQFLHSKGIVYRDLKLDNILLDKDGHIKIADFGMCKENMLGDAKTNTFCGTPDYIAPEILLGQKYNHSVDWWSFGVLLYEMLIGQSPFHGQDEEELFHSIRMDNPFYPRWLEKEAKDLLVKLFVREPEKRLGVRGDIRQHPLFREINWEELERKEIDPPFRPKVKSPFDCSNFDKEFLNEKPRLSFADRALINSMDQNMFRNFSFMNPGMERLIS

## CN(C(=O)CN1CCOCC1)c1ccc2sc3c(-c4cccc5c(=O)cc(N6CC7CCC(C6)O7)oc45)cccc3c2c1 [NU5455]
  inhibition at 1 µM: -3.7%
